For assay [1], the system named is d(CGCGAATTCGCG)2, Dickerson DNA duplex (ds) (DNA, duplex) CGCGAATTCGCG
Description: ESI-MS, negative mode. Particulars: NH4+ (100 mM ammonium acetate); pH 6.7; equimolar; reference ligand, value not shown.

Assay [2] has as its system single stranded oligonucleotide d(CGCGAATTCGCG) (ss) (DNA, single strand) CGCGAATTCGCG
Description: ESI-IM-MS, negative mode. The conditions noted are these: NH4+ (100 mM ammonium acetate); 20% methanol, pH 6.7; 1:10 molar ratio (170 µM compound); very low abundance, none at 1:1.

Experimental findings from article PMC6271531 (2014) are described below.

As for `N=C(N)c1ccc(N=NNc2ccc(C(=N)N)cc2)cc1`, the binding result in assay [1] is listed as “yes”.
Turning to `NCCNC(=O)CCN(CCC(=O)NCCN)CCC(=O)NCCN`, the binding result in assay [2] is reported as “weak”.
For `O=C(CCN(CCC(=O)NCCNC(=S)Nc1ccccc1)CCC(=O)NCCNC(=S)Nc1ccccc1)NCCNC(=S)Nc1ccccc1`, the binding result in assay [2] is “weak”.
